The test system of data set [1] is human serum albumin (HSA) nanoparticles. Briefly: level of binding of active principle to HSA nanoparticles, ultracentrifugation. It is filed as physicochemical. The settings on record: for level of binding of the sodium salicylate to the nanoparticles: of the amount used. The protocol:
(§1) Increasing amounts (from 0.25 g to 2.50 g) of sodium salicylate are added to nanoparticles prepared according to example 1 (HSA) or according to example 5 (BSA). The level of binding of the sodium salicylate to the nanoparticles, measured after ultracentrifugation, is 60% of the amount used, irrespective of the amount of active principle added.
(§2) The procedure uses as in example 1 (1 g of HSA) or of example 5 (1 g of BSA), but carried out in the presence of 0.50 g of sodium salicylate dissolved in phase 1. The mean size of the nanoparticles is 200 nm with a mean dispersion index of 0.5. The level of binding of the sodium salicylate to the nanoparticles, measured after ultracentrifugation, is 60% of the amount used.
(§3) 50 mg of doxorubicin hydrochloride are added to nanoparticles prepared according to example 1 (HSA) or according to example 5 (BSA). The level of binding of doxorubicin to the nanoparticles, measured after ultracentrifugation, is 90% of the quantity used.

Data set [2] has as its system bovine serum albumin (BSA) nanoparticles. Briefly: level of binding of active principle to BSA nanoparticles, ultracentrifugation. It is filed as physicochemical. The settings on record: for level of binding of the sodium salicylate to the nanoparticles: of the amount used. On the procedure: as §1, §2, §3

Take `COc1cccc2c1C(=O)c1c(O)c3c(c(O)c1C2=O)C[C@@](O)(C(=O)CO)C[C@@H]3O[C@H]1C[C@H](N)[C@H](O)[C@H](C)O1` [doxorubicin]: the “level of binding of doxorubicin to the nanoparticles” value is 90% in data set [1] (HSA nanoparticles, of the quantity used, 50 mg doxorubicin hydrochloride added) and 90% in data set [2] (BSA nanoparticles, of the quantity used, 50 mg doxorubicin hydrochloride added).

`O=C([O-])c1ccccc1O.[Na+]` [sodium salicylate]: the “level of binding of the sodium salicylate to the nanoparticles” value in data set [1] (HSA nanoparticles, 0.25 g to 2.50 g added to formed nanoparticles, irrespective of amount) is listed as 60%; in data set [1] (HSA, 0.50 g dissolved in phase 1), 60%; in data set [2] (BSA nanoparticles, 0.25 g to 2.50 g added to formed nanoparticles, irrespective of amount), 60%; in data set [2] (BSA, 0.50 g dissolved in phase 1), 60%.

The values are drawn from US5133908A, “Process for the preparation of dispersible colloidal systems of a substance in the form of nanoparticles” (Centre National de la Recherche Scientifique (CNRS), priority 1986, dated 1992).
